Earlier results on one compound are cited in US11865247B2, “Inhalers and related methods” (Norton (Waterford) Limited, priority 2017, dated 2024).

For `FCC(F)(F)F` [HFA134a, 1,1,1,2-tetrafluoroethane], the surface tension result (as liquid at 25° C.) is recorded as “about 8 mN/m”. Moreover, the vapor pressure (at 20° C.) is on record as 572 kpa.
